From paper PMC5635289, “Differential Effects of Angelicin Analogues on NF-κB Activity and IL-8 Gene Expression in Cystic Fibrosis IB3-1 Cells” (Mediators of Inflammation, 2017)

Experiments:
NF-κB p50 [1] = target: T1, NF-κB p50 (Homo sapiens, UniProt P19838); experiment: EMSA, inhibition of NF-κB/DNA interactions; type: binding; conditions: for Inhibition of NF-κB/DNA complex (MIC): NF-κB p50 and 32P-labeled NF-κB oligonucleotide, MIC = minimal inhibitory concentration, 12.5 μM was the lowest concentration used
T1 construct: This assay was performed using purified NF-κB p50; purchased Promega
T1 sequence (P19838 1-433 limits assumed): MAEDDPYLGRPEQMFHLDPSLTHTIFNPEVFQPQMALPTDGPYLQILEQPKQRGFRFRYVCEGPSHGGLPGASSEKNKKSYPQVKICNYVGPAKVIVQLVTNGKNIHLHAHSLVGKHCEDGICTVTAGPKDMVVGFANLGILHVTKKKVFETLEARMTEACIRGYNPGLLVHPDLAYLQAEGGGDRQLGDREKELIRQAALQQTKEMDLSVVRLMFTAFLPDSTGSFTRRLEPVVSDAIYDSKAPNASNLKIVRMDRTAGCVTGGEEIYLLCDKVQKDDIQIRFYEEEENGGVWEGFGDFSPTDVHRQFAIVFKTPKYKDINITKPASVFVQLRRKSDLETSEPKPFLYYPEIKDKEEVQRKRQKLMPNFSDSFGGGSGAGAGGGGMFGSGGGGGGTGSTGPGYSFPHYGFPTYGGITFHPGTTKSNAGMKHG
Description: Electrophoretic mobility shift assays were performed using double-stranded ^32P-labeled oligonucleotides as target DNA. Binding reactions were set up as previously described in binding buffer (10% glycerol, 0.05% NP-40, 10 mM Tris-HCl pH 7.5, 50 mM NaCl, 0.5 mM DTT, and 10 mM MgCl2), in the presence of 0.1 μl/20 μl of NF-κB p50 (50 gsu) (Promega, Madison, WI, USA) and 0.25 ng of labeled oligonucleotide, in a total volume of 20 μl. After 30 min binding at room temperature, samples were electrophoresed at constant voltage (200 V for 30 min) through a low ionic strength (0.25 TBE buffer) (1 TBE/40.089 M Tris-borate, 0.002 M EDTA) on 6% polyacrylamide gels until the tracking dye (bromophenol blue) reached the bottom of a 16 cm slab. Gels were dried and exposed for autoradiography with intensifying screens at […]. In these experiments, DNA/protein complexes migrate through the gel with slower efficiency. In studies on the inhibitors of protein/DNA interactions, addition of the reagents was as follows: (i) nuclear factors, (ii) active principles, (iii) binding buffer, and (iv) labeled oligonucleotides mimicking the binding sites for TF to be modulated. The nucleotide sequence of double-stranded target DNA utilized in these experiments was 5′-CGC TGG GGA CTT TCC ACG G-3′ (sense strand, NF-κB). The synthetic oligonucleotides utilized in this study were purchased from Sigma Genosys (Sigma Genosys, Cambs, UK). To calculate the effective concentrations, three different autoradiograms obtained from different time exposures were scanned and compared to control EMSA performed without addition of angelicin analogues (two independent experiments were performed).
The effects of TMA derivatives on NF-κB- (nuclear factor-kappaB-) mediated induction of proinflammatory genes was verified first in vitro by electrophoretic mobility shift assay (EMSA) with the aim to verify and quantify the possible inhibition of NF-κB/DNA interactions. This assay was performed using purified NF-κB p50 and ^32P-labeled target NF-κB double-stranded oligonucleotide mimicking the NF-κB consensus sequence present within the IL-8 gene promoter.

IB3-1 cells = experiment: Cell proliferation assay on IB3-1 cells; type: cell-based; conditions: Homo sapiens, cell number/ml after 48 h of treatment
Description: Monolayers of 60% confluent IB3-1 cells were seeded in 24- or 12-well plates in LHC-8 medium in the presence of 5% FBS. After 24 h, TMA derivatives were added at serial dilutions and incubated for further 2-3 days. The effects of compounds (TMA derivatives) on the cell proliferation were analyzed as elsewhere described. A first analysis was performed with serial dilutions to obtain 50 μM, 200 μM, and 800 μM solutions. In order to determine IC50 values, the following concentrations were used 12.5, 25, 50, 100, 200, and 800 μM. In order to prepare the cells for counting, they were washed with PBS 1X and detached with trypsin/EDTA. Cells were suspended in physiological solution and counted with a Z2 Coulter Counter (Coulter Electronics, Hialeah, FL, USA). The cell number/ml was determined as IC50 after 2 days of culture, when untreated cells are in log phase of cell growth.
In order to obtain preliminary information on the biological properties of TMA derivatives, their effects on cell growth were examined on IB3-1 cell line, excellent biological model to study new potential anti-inflammatory molecules. The use of this cell line to study the expression of proinflammatory molecules under a variety of stimuli is well established. Monolayers of 60% confluent IB3-1 cells were seeded in 12-well plate in LHC-8 medium with 5% FBS. After 24 h, compounds were added at different concentrations and the cell number/ml was determined after further 48 h of culture.

IL-8 mRNA = experiment: RT-qPCR quantification of IL-8 mRNA in TNF-α-induced IB3-1 cells; type: cell-based, human; conditions: for inhibition at 1 µM / inhibition at 10 µM: Homo sapiens, IB3-1, 24 h, TNF-α-induced IB3-1 cells, RT-qPCR, na = not active at the used concentrations; for inhibition at 1 µM: 1 μM compound; for inhibition at 10 µM: 10 μM compound; for Inhibition of IL-8 expression (range given): IB3-1 cells, low concentrations (1–10 μM), concentration not specified per value
Description: Monolayers of 60% confluent IB3-1 cells were seeded in 6- or 12-well plates in LHC-8 medium in the presence of 5% FBS. After 24 h, pure derivatives were added, 5 h before stimulation with TNF-α 80 ng/ml (ORF Genetics, Kopavogur, Iceland), and incubated for a further 24 h. Total RNA was extracted using TRIzol Reagent (Sigma-Aldrich, St. Louis, MO) following the manufacturer's instructions. Reverse transcription (RT) was performed using Reverse Transcription System kit (Promega, Madison, WI): 1 μg of total RNA was reverse transcribed in the presence of 5 mM MgCl2, 1X reverse transcription buffer (10 mM Tris-HCl, 50 mM KCl, and 0.1% Triton X-100), 1 mM each dNTPs, 20 U recombinant Rnasin Ribonuclease Inhibitor, 15 U AMV Reverse Transcriptase, and 0.5 μg oligo(dT)15 primers in a total volume of 20 μl for 10 min at 70°C and 60 min at 42°C. The resulting cDNA was quantified by relative quantitative real-time PCR (real-time qPCR). For real-time qPCR, 1 μl of cDNA was used for each SYBR Green reaction to quantify the relative expression of IL-8. Each 25 μl of total reaction volume contained 1 μl of cDNA, 10 pmol of primers, 1 iQTM SYBR Green Supermix (Bio-Rad Laboratories Inc., Hercules, CA). Real-time PCRs were performed for a total of 40 cycles (denaturation, 95°C for 10 s; annealing, 68°C for 30 s for IL-8, 65°C for 30 s for IL-6; elongation, 72°C for 60 s) using an iCycler IQ5 (Bio-Rad Laboratories Inc., Hercules, CA). Primer sequences were as follows: IL-8 forward: 5′-GTGCAGTTTTGCCAAGGAGT-3′ and IL-8 reverse: 5′-TTATGAATTCTCAGCCCTCTTCAAAAACTTCTC-3′. The relative proportions of each amplified template were determined utilizing the threshold cycle (CT) value for each performed PCR. The DDCt method was used to compare gene expression data. Each sample was quantified in duplicate. Changes in mRNA expression level were calculated following normalization with the GAPDH calibrator gene (housekeeping gene) and expressed as fold change over untreated samples [24]. Duplicates of negative controls (no template cDNA) were also run with every experimental plate to assess specificity and indicate potential contamination.
With the aim to study the effective anti-inflammatory properties of these new psoralen derivatives, we decided to further characterize the TMA derivatives for their potential activities on the expression of IL-8 gene, known to be involved in the lung inflammatory process in CF. […] More specifically, we were first interested in identifying compounds with low antiproliferative activity, but effective in downmodulating inflammatory gene expression without achieving a full suppression of these genes. We therefore employed IB3-1 cystic fibrosis cells, incubated for 5 h with two concentrations (1 μM and 10 μM) of selected compounds, and then treated with TNF-α ([…]). In the IB3-1 cystic fibrosis cellular model, NF-κB-dependent genes, including the gene encoding for the proinflammatory protein IL-8, generally are activated following infection with P. aeruginosa or treatment with TNF-α or IL-1β [26, 28, 31]. This feature is very important in the pathophysiology of CF, since several clinical complications are caused by exacerbation of this inflammatory response. After 1 day of incubation, cellular RNA was isolated for RT-qPCR analysis. All the TMA analogues found to be active in inhibiting NF-κB/DNA interactions were analyzed for their effects on inhibition of TNF-α-induced accumulation of IL-8 mRNA.

NF-κB p50 [2] = target: T1, NF-κB p50; design: method as in PMID 21148790; conditions: previous studies; cited from earlier work

Structure (SMILES) | Inhibition of NF-κB/DNA complex (MIC) (NF-κB p50 [1]) | IC50 (IB3-1 cells) | inhibition at 1 µM (IL-8 mRNA) | inhibition at 10 µM (IL-8 mRNA) | Inhibition of IL-8 expression (range given) (IL-8 mRNA) | Effect on NF-κB/DNA interactions at 100 μM (NF-κB p50 [1]; 100 μM compound) | Concentration inhibiting NF-κB/DNA interactions in EMSA (NF-κB p50 [2])
Cc1cc2oc(=O)cc(C)c2c2c1C=CCO2 [Compound 36] | 12.5 to 25 µM | > 800 µM | 77% | 74% | – | – | –
Cc1cc2c(C)cc(=O)oc2c2c1OCC=C2 [Compound 35] | 25 to 50 µM | 137 µM | 56% | 37% | – | – | –
Cc1cc(=O)oc2c1cc(C)c1occ(CBr)c12 [Compound 5] | 12.5 to 25 µM | 486 µM | 33% | 31% | – | – | –
Cc1cc2c(o1)c1cc(C)oc1c1c(C)cc(=O)oc21 [Compound 30] | 12.5 to 25 µM | > 800 µM | 10% | – | – | – | –
Cc1oc2c(cc(C)c3occ(C)c32)c(=O)c1C [Compound 27] | <12.5 (^∗) μM | > 800 µM | 16% | – | – | – | –
Cc1cc(=O)oc2c1ccc1oc(CN)cc12 [Compound 26] | 50 to 100 µM | 90.8 µM | 55% | 83% | 52–83% | – | –
O=c1cc(CO)c2ccc3sccc3c2o1 [Compound 16] | 25 to 50 µM | > 800 µM | 18% | 21% | – | – | –
Cc1cc2c(CO)cc(=O)oc2c2c(C)coc12 [Compound 8] | 25 to 50 µM | 398 µM | 51% | 52% | 52–83% | – | –
Cc1cc(=O)oc2c1cc(C)c1occ(C)c12 [TMA, 4,6,4′-trimethylangelicin, reference compound] | higher than 20 μM | 185 ± 30 µM | – | – | – | able to suppress NF-κB/DNA interactions | 100 µM
